The text below walks through data of article PMC2063130, “Reversal of P-glycoprotein-mediated multidrug resistance by XR9051, a novel diketopiperazine derivative” (British Journal of Cancer, 1998).

Experiment [1] deals with T1, P-glycoprotein (Cricetulus griseus, UniProt P21448).
T1 construct: gene ABCB1; CHrB30 plasma membranes
The experiment in a line: displacement of [3H]vinblastine equilibrium binding, rapid filtration. To be noted: read-out: EC50 (the source's name). (Loss of bound radioactivity is the signal in a displacement assay; it reports binding, not function.)

The target in experiment [2] is T1, P-glycoprotein. The experiment in a line: radioligand filtration binding; no specific binding in parental AuxB1 membranes (Kd […] is quoted from earlier work).

T1 sequence (P21448 whole entry): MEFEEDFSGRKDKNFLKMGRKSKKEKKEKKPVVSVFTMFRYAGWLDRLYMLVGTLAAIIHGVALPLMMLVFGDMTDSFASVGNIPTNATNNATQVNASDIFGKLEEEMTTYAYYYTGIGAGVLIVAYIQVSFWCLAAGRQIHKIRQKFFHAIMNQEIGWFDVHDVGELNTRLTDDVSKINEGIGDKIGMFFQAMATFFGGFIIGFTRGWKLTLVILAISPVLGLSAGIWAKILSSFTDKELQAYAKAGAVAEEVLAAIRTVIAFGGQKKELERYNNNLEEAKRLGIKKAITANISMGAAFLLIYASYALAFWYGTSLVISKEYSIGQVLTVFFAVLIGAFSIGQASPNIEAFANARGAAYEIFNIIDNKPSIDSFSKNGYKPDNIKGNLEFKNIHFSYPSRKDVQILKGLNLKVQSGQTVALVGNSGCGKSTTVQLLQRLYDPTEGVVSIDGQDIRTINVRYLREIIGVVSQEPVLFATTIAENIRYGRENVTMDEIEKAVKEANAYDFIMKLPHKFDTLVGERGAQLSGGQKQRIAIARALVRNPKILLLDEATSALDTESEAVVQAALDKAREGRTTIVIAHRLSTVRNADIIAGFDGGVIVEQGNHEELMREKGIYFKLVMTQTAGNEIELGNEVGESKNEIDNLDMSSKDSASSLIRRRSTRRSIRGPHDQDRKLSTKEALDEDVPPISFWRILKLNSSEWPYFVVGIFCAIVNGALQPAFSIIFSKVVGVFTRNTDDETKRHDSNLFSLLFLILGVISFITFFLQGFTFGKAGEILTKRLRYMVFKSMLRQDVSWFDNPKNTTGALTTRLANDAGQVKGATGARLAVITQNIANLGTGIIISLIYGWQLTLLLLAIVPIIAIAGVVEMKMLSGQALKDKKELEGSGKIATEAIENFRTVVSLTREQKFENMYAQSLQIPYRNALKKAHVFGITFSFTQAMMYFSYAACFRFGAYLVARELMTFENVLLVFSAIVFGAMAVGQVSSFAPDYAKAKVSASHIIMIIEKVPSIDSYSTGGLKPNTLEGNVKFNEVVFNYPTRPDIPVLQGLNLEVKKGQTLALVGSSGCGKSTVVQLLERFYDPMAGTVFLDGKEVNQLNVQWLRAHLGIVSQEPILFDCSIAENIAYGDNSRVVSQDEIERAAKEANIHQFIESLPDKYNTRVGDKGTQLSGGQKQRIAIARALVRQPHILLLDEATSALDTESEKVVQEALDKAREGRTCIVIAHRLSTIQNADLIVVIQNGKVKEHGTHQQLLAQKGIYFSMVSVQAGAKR

In the case of `COc1cc2c(cc1OC)CN(CCc1ccc(NC(=O)c3cccc(/C=c4\[nH]c(=O)/c(=C/c5ccccc5)n(C)c4=O)c3)cc1)CC2` [XR9051, N-(4-(2-(6,7-Dimethoxy-1,2,3,4-tetrahydro-2-isoquinolyl)ethyl)phenyl)-3-((3Z,6Z)-6-benzylidene-1-methyl-2,5-dioxo-3-piperazinylidene) methylbenzamide], the IC50 on P-glycoprotein [1] was 1.4 nM.
Take `CC[C@]1(O)C[C@@H]2CN(CCc3c([nH]c4ccccc34)[C@@](C(=O)OC)(c3cc4c(cc3OC)N(C)[C@H]3[C@@](O)(C(=O)OC)[C@H](OC(C)=O)[C@]5(CC)C=CCN6CC[C@]43[C@@H]65)C2)C1` [vinblastine]: the “radioligand filtration binding; no specific binding in parental AuxB1 membranes” value at P-glycoprotein [2] was “A rapid filtration assay was used to determine the equilibrium”.
